Results: US20240150377A1, “MODULATORS OF CYSTIC FIBROSIS TRANSMEMBRANE CONDUCTANCE REGULATOR” (VERTEX PHARMACEUTICALS INCORPORATED, priority 2020, published 2024)
Like-named read-outs stand apart in the source and are kept apart here.

Target: CFTR (Homo sapiens, UniProt P13569)
Assay: Membrane potential dye, Enteroid Assay B
Type: cell-based
Conditions: for Ent. B Max Activity: chloride transport as % of triple combination control (Enteroid Assay B); for EC50: read-out: Ent. B EC50
Method in brief: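 Fluorescence read over 15 min after chloride-free stimulation (10 μM forskolin, 100 μM IBMX, 300 nM Compound III) gave chloride transport, reported as % activity versus a triple-corrector/potentiator control. Beforehand, human enteroid cells had 18-24 h compound exposure at 37° C and 25 min methyl oxonol dye loading at room temperature.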

[1] = Table 8, human enteroid cells, 18-24 hours, acute 10 μM forskolin and 300 nM ivacaftor

CFTR, sequence (P13569 with tags, fused parts or gaps DEL508-508): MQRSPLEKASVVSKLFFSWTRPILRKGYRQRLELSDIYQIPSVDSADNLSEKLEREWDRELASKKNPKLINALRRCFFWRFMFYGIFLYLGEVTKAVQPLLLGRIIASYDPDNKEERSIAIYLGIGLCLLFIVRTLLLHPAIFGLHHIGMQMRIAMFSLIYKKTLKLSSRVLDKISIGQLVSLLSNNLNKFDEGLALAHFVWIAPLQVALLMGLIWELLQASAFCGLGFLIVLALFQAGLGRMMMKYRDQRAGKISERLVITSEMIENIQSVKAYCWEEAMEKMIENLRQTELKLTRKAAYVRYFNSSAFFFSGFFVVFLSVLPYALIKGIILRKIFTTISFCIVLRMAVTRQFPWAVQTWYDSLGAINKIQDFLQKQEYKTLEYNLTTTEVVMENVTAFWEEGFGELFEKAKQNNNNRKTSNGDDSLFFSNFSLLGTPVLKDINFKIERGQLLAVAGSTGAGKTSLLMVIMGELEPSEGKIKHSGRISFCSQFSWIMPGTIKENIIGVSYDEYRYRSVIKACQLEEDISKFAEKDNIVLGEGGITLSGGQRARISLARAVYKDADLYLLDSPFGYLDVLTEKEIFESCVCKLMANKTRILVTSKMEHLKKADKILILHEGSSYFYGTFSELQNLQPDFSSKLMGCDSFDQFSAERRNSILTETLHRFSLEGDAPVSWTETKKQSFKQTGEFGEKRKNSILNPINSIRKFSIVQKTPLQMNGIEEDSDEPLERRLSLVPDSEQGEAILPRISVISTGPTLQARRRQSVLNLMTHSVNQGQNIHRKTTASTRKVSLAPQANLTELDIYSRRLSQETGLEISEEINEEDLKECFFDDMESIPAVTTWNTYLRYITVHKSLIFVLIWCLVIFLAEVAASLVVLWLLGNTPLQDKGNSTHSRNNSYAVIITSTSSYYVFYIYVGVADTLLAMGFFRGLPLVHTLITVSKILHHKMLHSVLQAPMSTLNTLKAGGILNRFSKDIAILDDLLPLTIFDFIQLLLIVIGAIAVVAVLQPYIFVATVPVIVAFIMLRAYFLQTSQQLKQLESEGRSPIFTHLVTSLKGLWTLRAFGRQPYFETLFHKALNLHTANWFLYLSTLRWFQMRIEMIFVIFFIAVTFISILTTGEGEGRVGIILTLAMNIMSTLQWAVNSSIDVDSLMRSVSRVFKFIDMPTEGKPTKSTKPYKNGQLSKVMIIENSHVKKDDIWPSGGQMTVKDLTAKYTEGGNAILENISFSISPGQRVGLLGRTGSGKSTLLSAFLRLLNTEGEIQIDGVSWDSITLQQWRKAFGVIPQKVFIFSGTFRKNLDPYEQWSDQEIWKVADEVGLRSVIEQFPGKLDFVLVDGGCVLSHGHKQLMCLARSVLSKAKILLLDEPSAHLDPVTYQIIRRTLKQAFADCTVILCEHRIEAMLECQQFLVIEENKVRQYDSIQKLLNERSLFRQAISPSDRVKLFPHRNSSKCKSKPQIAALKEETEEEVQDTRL

Row | SMILES | Ent. B Max Activity (Table 8) | EC50 [1] [µM] | Ent. B Max Activity (%) (Table 9) | EC50 (Table 9) [µM]
1 | Cc1cccc(C)c1-c1cc2nc(n1)NS(=O)(=O)c1cc(n(C)n1)C(=O)N(Cc1ccccc1)[C@H](CC(C)(C)C)CO2 [Compound 926] | ++ (++ is 30-60%) | 3 to 30 |  | 
2 | Cc1cccc(C)c1-c1cc2nc(n1)NS(=O)(=O)c1cc(nn1C)C(=O)N(Cc1ccc(C(C)(C)O)cc1)[C@H](CC(C)(C)C)CO2 [Compound 927] | ++ (++ is 30-60%) | < 1 |  | 
3 | Cc1cccc(C)c1-c1cc2nc(n1)NS(=O)(=O)c1cc(nn1C)C(=O)N(Cc1ccccc1)[C@H](CC(C)(C)C)CO2 [Compound 928] | ++ (++ is 30-60%) | < 1 |  | 
4 | Cc1cccc(C)c1-c1cc2nc(n1)NS(=O)(=O)c1cc(n(C)n1)C(=O)N(Cc1ncccn1)[C@H](CC(C)(C)C)CO2 [Compound 929] | +++ (+++ is >60%) | < 1 |  | 
5 | Cc1cccc(C)c1-c1cc2nc(n1)NS(=O)(=O)c1cc(n(C)n1)C(=O)N(Cc1ccccn1)[C@H](CC(C)(C)C)CO2 [Compound 930] | +++ (+++ is >60%) | < 1 |  | 
6 | Cc1cccc(C)c1-c1cc2nc(n1)NS(=O)(=O)c1cc(nn1C)C(=O)N(Cc1cccnn1)[C@H](CC(C)(C)C)CO2 [Compound 931] | + (+ is <30%) | 1 to 3 |  | 
7 | Cc1cccc(C)c1-c1cc2nc(n1)NS(=O)(=O)c1cc(nn1C)C(=O)N(Cc1ccncn1)[C@H](CC(C)(C)C)CO2 [Compound 932] | + (+ is <30%) | < 1 |  | 
8 | Cc1cccc(C)c1-c1cc2nc(n1)NS(=O)(=O)c1cc(nn1C)C(=O)N(Cc1cccnc1)[C@H](CC(C)(C)C)CO2 [Compound 933] | + (+ is <30%) |  |  | 
9 | Cc1cccc(C)c1-c1cc2nc(n1)NS(=O)(=O)c1cc(nn1C)C(=O)N(Cc1ccccn1)[C@H](CC(C)(C)C)CO2 [Compound 934] | ++ (++ is 30-60%) | < 1 |  | 
10 | COCCCN1C(=O)c2cccc(c2)S(=O)(=O)Nc2nc(cc(-c3c(C)cccc3C)n2)OC[C@H]1CC(C)C [Compound 980] | +++ (+++ is >60%) | < 1 |  | 
11 | Cc1cccc(C)c1-c1cc2nc(n1)NS(=O)(=O)c1cccc(c1)C(=O)N(CC1CC(C(C)(C)O)C1)[C@H](CC(C)(C)C)CO2 (stereo partly drawn) [Compound 1020] | +++ (+++ is >60%) | < 1 |  | 
12 | Cc1cccc(C)c1-c1cc2nc(n1)NS(=O)(=O)c1cccc(c1)C(=O)N(Cc1ncc(C(C)C)cn1)[C@H](CC(C)(C)C)CO2 [Compound 1077] |  |  | +++ (+++ is >600%) | < 1
13 | C=C(C)c1cnc(CN2C(=O)c3cccc(c3)S(=O)(=O)Nc3nc(cc(-c4c(C)cccc4C)n3)OC[C@H]2CC(C)(C)C)nc1 [Compound 1078] |  |  | +++ (+++ is >600%) | < 1
14 | Cc1cccc(C)c1-c1cc2nc(n1)NS(=O)(=O)c1cccc(c1)C(=O)N([C@H](C)c1ccccc1)[C@H](CC(C)(C)C)CO2 [Compound 1079] | +++ (+++ is >60%) | < 1 |  | 
15 | Cc1cccc(C)c1-c1cc2nc(n1)NS(=O)(=O)c1cccc(c1)C(=O)N(Cc1ccc(C(C)(C)O)cn1)[C@H](CC(C)(C)C)CO2 [Compound 1082] | +++ (+++ is >60%) | < 1 |  | 
16 | Cc1cccc(C)c1-c1cc2nc(n1)NS(=O)(=O)c1cccc(n1)C(=O)N(Cc1cccnc1)[C@H](CC(C)(C)C)CO2 [Compound 1083] | +++ (+++ is >60%) | < 1 |  | 
17 | Cc1cccc(C)c1-c1cc2nc(n1)NS(=O)(=O)c1cccc(n1)C(=O)N(Cc1ccccn1)[C@H](CC(C)(C)C)CO2 [Compound 1084] | +++ (+++ is >60%) | < 1 |  | 

Row | SMILES | Ent. B Max Activity (Table 8) | EC50 [1] [µM] | Ent. B Max Activity (%) (Table 9) | EC50 (Table 9) [µM]
18 | Cc1cccc(C)c1-c1cc2nc(n1)NS(=O)(=O)c1cccc(n1)C(=O)N(Cc1ccccc1)[C@H](CC(C)(C)C)CO2 [Compound 1085] | +++ (+++ is >60%) | < 1 |  | 
19 | Cc1cccc(C)c1-c1cc2nc(n1)NS(=O)(=O)c1cccc(c1)C(=O)N(Cc1cccnc1)[C@H](CC(C)(C)C)CO2 [Compound 1086] | +++ (+++ is >60%) | < 1 |  | 
20 | Cc1cccc(C)c1-c1cc2nc(n1)NS(=O)(=O)c1cccc(c1)C(=O)N(Cc1ccccc1)[C@H](CC(C)(C)C)CO2 [Compound 1087] | +++ (+++ is >60%) | < 1 |  | 
21 | Cc1cccc(C)c1-c1cc2nc(n1)NS(=O)(=O)c1cccc(c1)C(=O)N(Cc1ccnc(NC(=O)OC(C)C)c1)[C@H](CC(C)(C)C)CO2 [Compound 1088] | +++ (+++ is >60%) | < 1 |  | 
22 | Cc1cccc(C)c1-c1cc2nc(n1)NS(=O)(=O)c1cccc(c1)C(=O)N(Cc1ccc(C(C)(C)O)nc1)[C@H](CC(C)(C)C)CO2 [Compound 1089] | +++ (+++ is >60%) | < 1 |  | 
23 | Cc1cccc(C)c1-c1cc2nc(n1)NS(=O)(=O)c1cccc(n1)C(=O)N(Cc1cccnn1)[C@H](CC(C)(C)C)CO2 [Compound 1090] | +++ (+++ is >60%) | < 1 |  | 
24 | Cc1cccc(C)c1-c1cc2nc(n1)NS(=O)(=O)c1cccc(n1)C(=O)N(Cc1ccncn1)[C@H](CC(C)(C)C)CO2 [Compound 1091] | +++ (+++ is >60%) | < 1 |  | 
25 | Cc1cccc(C)c1-c1cc2nc(n1)NS(=O)(=O)c1cccc(n1)C(=O)N(Cc1ccc(C(C)(C)O)cc1)[C@H](CC(C)(C)C)CO2 [Compound 1092] | +++ (+++ is >60%) | < 1 |  | 
26 | Cc1cccc(C)c1-c1cc2nc(n1)NS(=O)(=O)c1cccc(c1)C(=O)N(CCCC(C)(C)O)[C@H](CC(C)(C)C)CO2 [Compound 1093] | +++ (+++ is >60%) | < 1 |  | 
27 | Cc1cccc(C)c1-c1cc2nc(n1)NS(=O)(=O)c1cccc(c1)C(=O)N(Cc1ccc(C(C)(C)O)cc1)[C@H](CC(C)(C)C)CO2 [Compound 1094] | +++ (+++ is >60%) | < 1 |  | 
28 | Cc1cccc(C)c1-c1cc2nc(n1)NS(=O)(=O)c1cccc(c1)C(=O)N(Cc1cncnc1)[C@H](CC(C)(C)C)CO2 [Compound 1095] | +++ (+++ is >60%) | < 1 |  | 
29 | Cc1cccc(C)c1-c1cc2nc(n1)NS(=O)(=O)c1cccc(c1)C(=O)N(Cc1cnc(O)nc1)[C@H](CC(C)(C)C)CO2 [Compound 1096] | + (+ is <30%) |  |  | 
30 | Cc1cccc(C)c1-c1cc2nc(n1)NS(=O)(=O)c1cccc(c1)C(=O)N(Cc1ccc(O)nn1)[C@H](CC(C)(C)C)CO2 [Compound 1097] | ++ (++ is 30-60%) | < 1 |  | 
31 | Cc1cccc(C)c1-c1cc2nc(n1)NS(=O)(=O)c1cccc(c1)C(=O)N(Cc1ccncn1)[C@H](CC(C)(C)C)CO2 [Compound 1098] | +++ (+++ is >60%) | < 1 |  | 
32 | COc1cnc(CN2C(=O)c3cccc(c3)S(=O)(=O)Nc3nc(cc(-c4c(C)cccc4C)n3)OC[C@H]2CC(C)(C)C)cn1 [Compound 1099] | +++ (+++ is >60%) | < 1 |  | 
33 | Cc1cccc(C)c1-c1cc2nc(n1)NS(=O)(=O)c1cccc(c1)C(=O)N(Cc1cnccn1)[C@H](CC(C)(C)C)CO2 [Compound 1100] | +++ (+++ is >60%) | < 1 |  | 
34 | COc1ncc(CN2C(=O)c3cccc(c3)S(=O)(=O)Nc3nc(cc(-c4c(C)cccc4C)n3)OC[C@H]2CC(C)(C)C)cn1 [Compound 1101] | +++ (+++ is >60%) | < 1 |  | 
